Marks after values point to notes of the source that are not given here.
Assays:
rat [1] = experiment: barbital interaction (sleep induction) test; type: in vivo; details: for NUMBER OF RATS SLEEPING: 10 rats per group; for SLEEP DURATION mean ± s.e.m.: maximum 6 hours after barbital injection
From the text: (§1) The following Tables report the results of the Irwin, PTZ and barbital interaction (sleep induction) tests. Description of these tests may be found in Psychopharmacologica, 13:222-257 (1968), Krall et al, Epilepsia 19:409-428 (1978), and Simon et al, J. Pharmacol, Paris 13:241-252 (1982). See also Roux et al, Phoenix international Pharmacology Reports Nos. D30.2061/2 and D99.021/2.
In Table 3, the following apply: Student's t Test: NS=Not Significant; *=p<0.05; **=p<0.01; ***=<0.001 Fisher's Exact Test: (number of rats sleeping) No indication=Not Significant; +=p<0.05; ++=p<0.01; +++=p<0.001 • (#): maximum=6 hours after barbital injection (taken 50 minutes after barbital injection).

patients with epilepsy = details: ABPI Compendium 1999-2000; cited from earlier work
[2] = intravenous administration; Srinivas 1993; cited from earlier work
rat [3] = experiment: Pentylenetetrazole (PTZ) Seizure Test; type: in vivo; details: for NUMBER OF CLONIC CONVULSIONS number of rats / NUMBER OF DEATHS number of rats / NUMBER OF TONIC CONVULSIONS number of rats: 10 rats per group; for NUMBER OF CLONIC CONVULSIONS number of rats / NUMBER OF DEATHS number of rats / NUMBER OF TONIC CONVULSIONS number of rats / NUMBER OF CLONIC CONVULSIONS % antagonism / NUMBER OF DEATHS % antagonism / NUMBER OF TONIC CONVULSIONS % antagonism: observed during 60 minutes
From the text: as §1
Table 2a reports mean results based on animals showing the symptoms (minimum=3 animals). Table 2b reports results observed during 60 minutes. In these Tables: Student's t Test: NS=Not Significant; *=p<0.05; ** p<0.01; ***=p<0.001 Fisher's Exact Test: No indication=Not Significant; **=p<0.01; ***=p<0.001

[4] = test system: attention-deficit hyperactivity disorder (ADHD); details: Patrick et al 1987; cited from earlier work

## COC(=O)C(c1ccccc1)C1CCCCN1 (racemic) [d,l-MPH, d,l-threo-methylphenidate]
Rat [1]; 0.25 mg/kg s.c. −30 min
  SLEEP DURATION % change from control: +51%
  NUMBER OF RATS SLEEPING: 9
  SLEEP DURATION mean ± s.e.m.: 94.2 ± 18.3 NS min
Rat [1]; 0.5 mg/kg s.c. −30 min
  SLEEP DURATION % change from control: −19%
  NUMBER OF RATS SLEEPING: 8
  SLEEP DURATION mean ± s.e.m.: 50.2 ± 16.2 NS min
Rat [1]; 1 mg/kg s.c. −30 min
  SLEEP DURATION % change from control: −100%
  NUMBER OF RATS SLEEPING: 0 +++
  SLEEP DURATION mean ± s.e.m.: 0.0 ± 0.0*** min
Rat [1]; 2 mg/kg s.c. −30 min
  SLEEP DURATION % change from control: −70%
  NUMBER OF RATS SLEEPING: 4 +
  SLEEP DURATION mean ± s.e.m.: 19.0 ± 12.6 min
Rat [1]; 4 mg/kg s.c. −30 min
  SLEEP DURATION % change from control: −100%
  NUMBER OF RATS SLEEPING: 0 +++
  SLEEP DURATION mean ± s.e.m.: 0.0 ± 0.0*** min
Patients with epilepsy
  effect on seizure frequency: can cause an increase in seizure frequency in a small number of such patients
[2]
  time after dosing with similar plasma levels of the two enantiomers: around 1.5 hours

## Cn1c(=O)c2c(ncn2C)n(C)c1=O [Caffeine]
Rat [1]; 16 mg/kg s.c. −30 min
  SLEEP DURATION % change from control: −99%
  NUMBER OF RATS SLEEPING: 1 +++
  SLEEP DURATION mean ± s.e.m.: 0.5 ± 0.5*** min

## CN1C(=O)CN=C(c2ccccc2)c2cc(Cl)ccc21 [DIAZEPAM, diazepam, reference compound]
Rat [3]; 4 mg/kg s.c. −30 min
  NUMBER OF CLONIC CONVULSIONS number of rats: 0+++
  NUMBER OF DEATHS number of rats: 0+++
  NUMBER OF TONIC CONVULSIONS number of rats: 0+++
  NUMBER OF CLONIC CONVULSIONS % antagonism: 100%
  NUMBER OF DEATHS % antagonism: 100%
  NUMBER OF TONIC CONVULSIONS % antagonism: 100%

## CCOC(=O)c1ncn2c1CN(C)C(=O)c1cc(N=[N+]=[N-])ccc1-2 [RO 15-4513, reference compound]
Rat [3]; 2 mg/kg s.c. −30 min
  NUMBER OF CLONIC CONVULSIONS number of rats: 10
  NUMBER OF DEATHS number of rats: 10
  NUMBER OF TONIC CONVULSIONS number of rats: 10
  NUMBER OF CLONIC CONVULSIONS % antagonism: 0%
  NUMBER OF DEATHS % antagonism: 0%
  NUMBER OF TONIC CONVULSIONS % antagonism: 0%
Rat [3]; 2 mg/kg s.c. −30 min, rat
  LATENCY TO CLONIC CONVULSIONS % change from control: −37%
  LATENCY TO CLONIC CONVULSIONS mean ± s.e.m.: 345.0 ± 59.4* sec
  LATENCY TO DEATHS % change from control: −36%
  LATENCY TO DEATHS mean ± sem.: 837.0 ± 116.7** sec
  LATENCY TO TONIC CONVULSIONS % change from control: −42%
  LATENCY TO TONIC CONVULSIONS mean ± sem.: 681.0 ± 102.6** sec

## COC(=O)[C@H](c1ccccc1)[C@H]1CCCCN1 [d-MPH, d-threo-Methylphenidate]
Rat [1]; 0.25 mg/kg s.c. −30 min
  SLEEP DURATION % change from control: −83%
  NUMBER OF RATS SLEEPING: 6
  SLEEP DURATION mean ± s.e.m.: 10.5 ± 5.3** min
Rat [1]; 0.5 mg/kg s.c. −30 min
  SLEEP DURATION % change from control: −65%
  NUMBER OF RATS SLEEPING: 8
  SLEEP DURATION mean ± s.e.m.: 21.6 ± 13.5* min
Rat [1]; 1 mg/kg s.c. −30 min
  SLEEP DURATION % change from control: −97%
  NUMBER OF RATS SLEEPING: 3 ++
  SLEEP DURATION mean ± s.e.m.: 2.1 ± 1.5*** min
Rat [1]; 2 mg/kg s.c. −30 min
  SLEEP DURATION % change from control: −100%
  NUMBER OF RATS SLEEPING: 0 ++
  SLEEP DURATION mean ± s.e.m.: 0.0 ± 0.0*** min
[4]
  pharmacological action in the treatment of ADHD: is the property of the d-enantiomer
